# In PMC10974149, “Acheta domesticus: A Natural Source of Anti-Skin-Aging Ingredients for Cosmetic Applications” (Pharmaceuticals, 2024):
# Molecular target: T1, collagenase from Clostridium histolyticum
# T1 construct: gene colG
# Assay: spectrophotometric collagenase inhibition assay
# Assay type: biochemical
# Settings: positive control; substrate not stated in the assay section (FALGPA among reagents)
# Excerpt: spectrophotometric collagenase inhibition assay on collagenase from Clostridium histolyticum
structure (smiles),measurement,value
"CC1(C)CC[C@]2(C(=O)O)CC[C@]3(C)C(=CC[C@@H]4[C@@]5(C)CC[C@H](O)C(C)(C)[C@@H]5CC[C@]43C)[C@@H]2C1 [OA, Oleanolic acid]",IC50 (μg/mL) / Collagenase Inhibition,3 ± 1 µg/mL
